“Also recorded” adds a separate entry of the source.
Key:
[1] = tested on: FOXO3a promoter recruitment in MCF-7 or MDA-MB231 cells; assay: Chromatin immunoprecipitation (ChIP) for FOXO3a promoter recruitment; type: cell-based, human; settings: by six hours post treatment
Protocol: Chromatin immunoprecipitation (ChIP) assays were performed essentially the same as described in [28]. Briefly, cells were fixed with 1% formaldehyde, and then whole-cell lysates were prepared. Protein lysate was subjected to ChIP with the indicated antibodies, followed by DNA purification (Invitrogen, Waltham, MA, USA). ChIP-enriched DNA was analyzed by PCR with the indicated primer sets (Table S1 in Additional file 3) purchased from NZYTech (Lisbon, Portugal). Visualization of bands was achieved using a BioRad Chemidoc XRS+ (BioRad) and quantified using the Image Lab software (BioRad).
Figure 5 Chromatin immunoprecipitation analysis for FOXO3a promoter recruitment. (A) Chromatin immunoprecipitation (ChIP) assays for FOXO3a following ETP-45658 treatment at three or six hours of MCF-7 or MDA-MB231 cells for […], CDKN1B, BCL2L11or FASLG. IgG indicates no specific antibody used and for simplicity, only inputs from our MCF-7 samples are shown. (B and C) Quantification of our ChIP gels normalised to inputs from each respective cell line. Error bars indicate standard deviation, N = 3.

[2] = tested on: known toxicity pathways and canonical stress pathways; assay: Ingenuity Pathway Tox Analysis of genome-wide array data; type: cell-based, human; settings: vs DMSO; MCF-7 array data
Excerpt: While our results highlight that the primary cellular response is an anti-proliferative response (as opposed to an apoptotic response), for the development of ETP-45658 as a potential therapeutic, we questioned if ETP-45658 exposure was associated with any degree of toxicity, one of the most fundamental questions for any proposed therapeutic. We conducted a genome-wide analysis utilising an Ingenuity Pathway Analysis algorithm to address if any known toxicity pathway(s) were activated or induced after treatment with ETP-45658 (or by the reference compound PI-103). This included an extensive evaluation of the cardiac necrosis stress cascade, genes implicated in kidney failure, liver necrosis and liver hematomegaly. Furthermore, we also questioned if, on a genome-wide scale, any know canonical stress pathways were activated by ETP-45658 (or PI-103) treatment. This included the p53 pathway, PTEN aldosterone, ErbB2-ErbB3 and the ERK-MAPK signalling cascades.
Figure 2 Focused toxicity and safety assessment of ETP-45658.

total p53 = assay: Immunoblot of total p53
Protocol: Sub-confluent cells were incubated under the conditions indicated in each figure and washed twice with phosphate-buffered saline (PBS) prior to lysis. RIPA lysis buffer was added (50 mM TrisHCl, 150 mM NaCl, 1% NP-40, 2 mM Na3VO4, 100 mM NaF, 20 mM Na4P2O7 and 1x protease inhibitor cocktail (Roche Molecular Biochemicals, Indianapolis, IN, USA). The membranes were incubated overnight for total AKT, phospho-serine-473-AKT, total p53 (DO1) (Santa Cruz Biotechnology, Dallas, TX, USA), phospho-threonine 32-FOXO3a (Merck Millipore, Darmstadt, Germany) and α-tubulin (Sigma-Aldrich). Secondary antibodies used were anti-mouse, goat or rabbit immunoglobulin G (IgG)-horseradish peroxidase (HRP) (Santa Cruz Biotechnology) as appropriate. Visualisation of bands was achieved using ChemiDoc imaging system (BioRad Laboratories Inc, Hercules, CA, USA) after membrane treatment with Ecl + (Amersham, Little Chalfont, UK).

[3] = tested on: phosphorylated serine 473 AKT; assay: Immunoblot of AKT Ser473 phosphorylation in MCF-7 or U2OS cells; type: cell-based, human
Protocol: (§1) Figure 1 Cellular response to ETP-45658. […] Seventy-two hours post treatment, MTT assays were conducted. (B) Dose- and time-dependent analysis of Ser473 phosphorylation of AKT phosphorylation by 100nM ETP-45658 or PI-103 treatment. MCF-7 or U2OS cells were treated with the indicated concentrations (μM) of ETP-45658 (or PI-103) for four hours, then total protein was extracted and immunoblotted. For nuclear FOXO analysis, nuclear protein fractions were collected four hours post ETP-45658 (or PI-103) treatment. Nuclear FOXO3a levels were measure by immunoblotting. Nuclear fractions were confirmed by probing for lamin A/C. (C) FACS profile of MCF-7 or U2OS following 100 nM ETP-45658 treatment (20,000 events scored, N = 5). (D) Heat map for the top 100 differentially expressed genes based on hierarchical clustering using Euclidean distance metric. Red and green indicate genes that induced or repressed respectively by ETP-45658 or PI-103. Black indicates no change (N = 4). […] Numbers indicate number of genes that are exclusive to that particular category.

nuclear FOXO3a = assay: Immunoblot of nuclear fractions for FOXO3a in MCF-7 or U2OS cells; type: cell-based, human; settings: nuclear fractions of treated MCF-7 or U2OS cells
Protocol: as §1

PC3 = assay: Proliferation assay (MTT, 72 hours); type: cell-based; settings: Homo sapiens, PC-3
Protocol: (§2) Cells were seeded in 96-well microtitre plates. Compounds (in DMSO) were added to each well (at a final concentration of 10 μM). The medium was removed from the cells and replaced with 0.2 ml of medium containing either compound for 72 hours and then processed for MTT assay (Promega Corp, Madison, WI, USA) N = 6.
as §1

MCF-7 = assay: Proliferation assay (MTT, 72 hours); type: cell-based; settings: Homo sapiens, MCF7
Protocol: as §2, §1

MV4.11 = assay: Proliferation assay (MTT, 72 hours); type: cell-based; settings: Homo sapiens
Protocol: as §2, §1

NCIH460 = assay: Proliferation assay (MTT, 72 hours); type: cell-based; settings: Homo sapiens, NCI-H460
Protocol: as §2, §1

HCT-116 = assay: Proliferation assay (MTT, 72 hours); type: cell-based; settings: Homo sapiens
Protocol: as §2, §1

T47D = assay: Proliferation assay (MTT, 72 hours); type: cell-based; settings: Homo sapiens
Protocol: as §2, §1

[4] = tested on: PC3, MCF7, MV4.11, T47D, HCT-116 and NCIH46 cells; assay: cells; type: cell-based; settings: Homo sapiens; range over all tested cell lines; MTT 72 hours; read-out: EC50 value for the inhibition of proliferation, inhibitory range
Excerpt: We determined the EC50 value for the inhibition of proliferation in each of the following cell lines, PC3, MCF7, MV4.11, T47D, HCT-116 and NCIH46 cells.

[5] = design: method as in PMID 17575152; settings: cited from earlier work
[6] = MCF-7 and U2OS, as early as 30 minutes post treatment
[7] = osteosarcoma cells (U2OS), by three hours post treatment

Cn1ncc2c(N3CCOCC3)nc(-c3cccc(O)c3)nc21 [ETP-45658]
FOXO3a promoter recruitment (CCNG2, CDKN1B, BCL2L11, FASLG) [1]: statistically significant FOXO3a promoter recruitment
induction of known toxicity pathways (Ingenuity Pathway Tox Analysis) [2]: Neither ETP-45658 (nor PI-103) treatment significantly induced any known toxicity pathways
accumulation of total p53 (total p53): little to no p53 accumulation; also recorded: neither ETP-45658 (nor PI-103) triggered an accumulation
phosphorylated serine 473 AKT [3, 6]: significant decrease
phosphorylated serine 473 AKT [3, 7]: unable to detect
nuclear FOXO3a level (nuclear FOXO3a): significant accumulation

Oc1cccc(-c2nc(N3CCOCC3)c3oc4ncccc4c3n2)c1 [PI-103]
GI50 (PC3): 50 nM
GI50 (MCF-7): 500 nM
GI50 (MV4.11): 50 nM
GI50 (NCIH460): 1310 nM
GI50 (HCT-116): 1670 nM
GI50 (T47D): 340 nM
induction of known toxicity pathways (Ingenuity Pathway Tox Analysis) [2]: Neither ETP-45658 (nor PI-103) treatment significantly induced any known toxicity pathways
accumulation of total p53 (total p53): neither ETP-45658 (nor PI-103) triggered an accumulation
phosphorylated serine 473 AKT [3, 6]: significant decrease
phosphorylated serine 473 AKT [3, 7]: unable to detect
EC50 [4]: 49 to 1760 nM
aqueous solubility [5]: limited aqueous solubility

— publication PMC4303209, “A novel phosphatidylinositol 3-kinase (PI3K) inhibitor directs a potent FOXO-dependent, p53-independent cell cycle arrest phenotype characterized by the differential induction of a subset of FOXO-regulated genes” (Breast Cancer Research : BCR, 2014)
